Here are results for 92 compounds from PubChem BioAssay AID1645866 (Buhrlage Lab, Dana-Farber Cancer Institute and Novartis …, 2021).

In general, IC50 refers to the concentration that inhibits the measured activity by half.

Structures are written as SMILES. The source made the active and inactive calls.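 The calls were made as follows: active = in confirmatory dose-response testing, peak deubiquitinase inhibition of 30% or more; inactive = the rest.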

The target in the assay is Ubiquitin carboxyl-terminal hydrolase 28 (Homo sapiens) (UniProt Q96RU2). As to the kind of experiment: Ubiquitin-specific peptidase 28 DUB inhibitors, biochemical concentration-dependence assay, validation of primary screening hits (AID 1645866). The note with it: purified USP28, ubiquitin-rhodamine fluorescence, 30 min.
Chain of Ubiquitin carboxyl-terminal hydrolase 28 (Homo sapiens) (Q96RU2 whole entry, looked up): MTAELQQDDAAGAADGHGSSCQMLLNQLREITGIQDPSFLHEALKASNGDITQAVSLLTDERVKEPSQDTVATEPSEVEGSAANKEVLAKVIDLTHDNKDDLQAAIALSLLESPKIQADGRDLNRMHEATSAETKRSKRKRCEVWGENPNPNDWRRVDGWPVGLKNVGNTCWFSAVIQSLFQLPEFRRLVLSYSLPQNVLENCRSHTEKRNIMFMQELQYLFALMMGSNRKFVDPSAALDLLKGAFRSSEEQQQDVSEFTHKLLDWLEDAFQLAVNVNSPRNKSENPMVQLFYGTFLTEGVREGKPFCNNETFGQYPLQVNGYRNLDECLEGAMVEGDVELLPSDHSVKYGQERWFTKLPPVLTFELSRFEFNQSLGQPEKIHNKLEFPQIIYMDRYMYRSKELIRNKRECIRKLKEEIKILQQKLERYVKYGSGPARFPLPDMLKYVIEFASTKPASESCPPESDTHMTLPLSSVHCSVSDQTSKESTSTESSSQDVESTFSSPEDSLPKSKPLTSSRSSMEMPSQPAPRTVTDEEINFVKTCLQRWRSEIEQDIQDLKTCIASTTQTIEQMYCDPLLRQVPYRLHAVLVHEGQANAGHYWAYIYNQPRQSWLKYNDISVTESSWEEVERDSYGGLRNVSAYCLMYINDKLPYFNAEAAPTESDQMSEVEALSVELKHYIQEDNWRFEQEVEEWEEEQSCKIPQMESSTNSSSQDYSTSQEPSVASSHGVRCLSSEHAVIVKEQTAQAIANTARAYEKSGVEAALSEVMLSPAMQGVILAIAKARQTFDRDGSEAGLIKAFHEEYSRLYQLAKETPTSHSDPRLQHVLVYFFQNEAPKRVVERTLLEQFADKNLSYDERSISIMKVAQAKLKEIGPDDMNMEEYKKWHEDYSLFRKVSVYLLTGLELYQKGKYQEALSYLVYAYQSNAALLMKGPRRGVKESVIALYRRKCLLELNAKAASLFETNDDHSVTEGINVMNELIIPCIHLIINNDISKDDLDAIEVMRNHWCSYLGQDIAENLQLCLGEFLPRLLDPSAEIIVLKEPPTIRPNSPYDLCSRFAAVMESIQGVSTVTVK
As for `O=C(NC1CC1)c1ccnn1-c1ccc2ccc(-c3ccncc3)cn12`, the IC50 is > 50 µM (inactive).

In the case of `COc1ccc(OC)c(NC(=O)CS(=O)(=O)c2cn(CC(=O)N3CCC(C)CC3)c3ccccc23)c1`, the half-inhibitory concentration (IC50) is 25 µM.

Consider `C/C=C(\Cl)C1=CC(=O)[C@]23C[C@H]2[C@@]2(C)CO[C@@]1(O)[C@@]3(O)O2`, for which the IC50 was > 50 µM (inactive).

On to `COc1ccc(OC)c(-c2cn3ccn(-c4ccc5c(c4)CCC5)c(=O)c3n2)c1`, for which the IC50 is > 50 µM (inactive).

As for `COc1ccc(-n2ccc(=O)c(-c3nc(-c4ccccc4F)no3)n2)cc1OC`, the IC50 is > 50 µM (inactive).

`Nc1nc(OCc2ccccc2)c2[nH]c(/C=C/c3cccs3)nc2n1`: the IC50 is 24.9 µM.

On to `O=C(NCc1ccc2c(c1)OCO2)c1[nH]nc2c1COc1ccccc1-2`, for which the IC50 is 7.75 µM.

Regarding `CCCCNc1nc2c(-c3ccccc3)nnn2c2ccccc12`, the IC50 was 6.63 µM.

As to `CC1CCCN1C(=O)c1ccn(-c2ccc3ccc(-c4cccnc4)cn23)n1` (configuration not stated), the IC50 is > 50 µM (inactive).

For the compound `COc1cccc(N2CCN(C(=O)C3CCN(c4nc(NC(C)=O)ns4)CC3)CC2)c1`, the IC50 was > 50 µM (inactive).

In the case of `Cc1cccc(C(=O)Nc2cccc(SC(C(=O)Nc3ccc(Cl)c(C(=O)O)c3)c3ccccc3)c2)c1` (configuration not stated), the 50% inhibitory concentration (IC50) was 15.3 µM.

Regarding `Cc1ccc2c(=O)c(C(=O)Nc3ccccc3)cn(CC(=O)NC3CCCCC3)c2n1`, the IC50 was > 50 µM (inactive).

With `COc1ccc(C(=O)Nc2ccc(S(=O)(=O)N3CCCCC3)cc2)cc1`, the IC50 is 17.4 µM.

For `CC(=O)c1ccccc1NC(=O)COc1ccc(-c2ccc(C#N)cc2)cc1`, the concentration for half-maximal inhibition (IC50) is 4.72 µM.

As to `COc1ccc(OC)c(NC(=O)Cn2c(=O)n(CC3CCC(C(=O)NCCc4ccccc4)CC3)c(=O)c3ccccc32)c1` (configuration not stated), the IC50 is 4.61 µM.

With `Cc1ccc(-c2ncc(C(=O)NCc3cccc(C)c3)c(-c3ccncc3)n2)cc1`, the IC50 was > 50 µM (inactive).

Consider `O=C(CN1C=NC2=NS(=O)(=O)c3ccccc3N21)Nc1cc(F)ccc1F`, for which the half-maximal inhibitory concentration (IC50) is 28 µM.

For the compound `COc1ccc(NC(=O)c2[nH]nc3c2COc2ccccc2-3)c(OC)c1`, the IC50 was 6.94 µM.

On to `CCCC1Cc2c(sc3nc(SCC)nc(N)c23)CO1` (configuration not stated), for which the IC50 is 16.4 µM.

For the compound `CCCc1nc2sc3c(NCc4ccco4)ncnc3c2c2c1CCC2`, the IC50 was less than 0.05 µM.

`Cc1nn(-c2cc(N3CCOCC3)ncn2)c(C)c1CCC(=O)Nc1ccc(C(C)C)cc1`: the half-inhibitory concentration (IC50) is 23 µM.

On to `Cc1ccc(Cl)cc1NC(=O)COC(=O)c1ccc2ccccc2n1`, for which the IC50 was > 50 µM (inactive).

As to `CN1CCN(c2ncnc3c2oc2ccc(Cl)cc23)CC1`, the IC50 was > 50 µM (inactive).

As to `O=C(Nc1ccc(Br)cn1)c1nc2ccccc2nc1N1CCCCC1`, the IC50 was > 50 µM (inactive).

With `O=C(Nc1ccncc1)c1ncoc1-c1cccc(Cl)c1`, the IC50 is 32.3 µM.

As to `COc1cccc(NC(=O)CCc2c(C)nn(-c3cc(N4CCCCC4)ncn3)c2C)c1`, the IC50 is 7.17 µM.

With `O=C(CSc1nc2ccncc2[nH]1)Nc1ccc(Br)cc1F`, the IC50 is 26.5 µM.

`N#Cc1cc2c(nc1SCC(=O)NCc1ccccc1)CCCC2`: the IC50 is > 50 µM (inactive).

For `Cc1noc(-c2cc(=O)n(CC(=O)NCc3ccccc3)c3ccccc23)n1`, the half-maximal inhibitory concentration (IC50) is 25.1 µM.

`CCN(CC)c1cc(C)c2cc(NC(=O)c3ccncc3)ccc2n1`: the IC50 was 5.88 µM.

Regarding `Nc1c(-c2ccc(Cl)cc2)cnc2nc(Sc3ncc(C(F)(F)F)cc3Cl)nn12`, the IC50 was > 50 µM (inactive).

In the case of `Nc1ccccc1SCc1noc(-c2cccs2)n1`, the IC50 is 6.61 µM.

As to `Cc1ccc(-c2nc(Cn3cnc4ccccc4c3=O)cs2)cc1`, the half-inhibitory concentration (IC50) is 4.97 µM.

On to `CCC(=O)Nc1ccc2c(c1)nc(CSc1nccc(C)n1)n2CC`, for which the IC50 is 0.365 µM.

Turning to `CC(=O)c1cccc(NC(=O)c2ccc(-c3csc(C)n3)cc2)c1`, the IC50 was 3.13 µM.

For `Cc1cc(-c2cnc(N(C)C)nc2-c2ccc(CNC(=O)Cc3ccc(F)cc3)cc2)on1`, the IC50 is 28.7 µM.

With `Cc1cccc(C(=O)NCc2nc3ccccc3n2Cc2ccccc2C)c1`, the IC50 was > 50 µM (inactive).

Turning to `CC1CCN(S(=O)(=O)c2ccc(C(=O)Nc3ccc(S(N)(=O)=O)cc3)cc2)CC1`, the IC50 is 30.1 µM.

For `O=C(NCc1cccnc1)c1cnn2c(C(F)(F)F)cc(-c3ccccc3)nc12`, the IC50 was > 50 µM (inactive).

Turning to `CSc1nc2ncn(CC(=O)Nc3cccc(Cl)c3)c(=O)c2s1`, the IC50 is > 50 µM (inactive).

`COc1ccc(NC(=O)CS(=O)(=O)c2[nH]c(-c3ccc(C)cc3)nc2-c2ccccc2)cc1Cl`: the IC50 is 31 µM.

As for `Cc1nc(SCC#N)c2oc3ccccc3c2n1`, the IC50 was 40 µM.

Turning to `O=C(CCCn1c(=O)[nH]c2cc(Cl)ccc2c1=O)N1CCc2ccccc2C1`, the IC50 is 19.4 µM.

Turning to `COc1ccc(N(CC(=O)NC2CCCCC2)C(=O)c2ccc(-c3ccccc3)[nH]2)cc1OC`, the IC50 is 4.16 µM.

As for `COc1ccc(C)cc1NC(=O)C1CC(=O)Nc2nc(SCc3ccccc3)nn21` (configuration not stated), the IC50 is 14.7 µM.

For the compound `Cc1ccc2c(C)nc(Nc3ncc4c(n3)CC(c3ccco3)CC4=O)nc2c1` (configuration not stated), the 50% inhibitory concentration (IC50) is less than 0.05 µM.

For `COCCNC(=O)c1ccn(-c2ccc3ccc(-c4cnn(C)c4)cn23)n1`, the IC50 is > 50 µM (inactive).

With `O=C(Nc1ccc2c(c1)OCCO2)C1CCN(C(=O)c2ccccc2)CC1`, the IC50 is 9.44 µM.

Regarding `O=C(COC(=O)c1n[nH]c2ccccc12)Nc1ccc(N2CCCCC2)cc1`, the IC50 is 25.9 µM.

For `Cc1ccc(-n2nnc(C(=O)NC3CCCCC3)c2N)cc1`, the IC50 was 27.2 µM.

As for `O=C(COc1cccc2ccc(N3CCC(Cc4ccccc4)CC3)nc12)NCc1ccc(F)cc1`, the half-maximal inhibitory concentration (IC50) is 20.7 µM.

With `N#Cc1ccccc1OCc1csc(-c2ccccc2)n1`, the IC50 was 5.97 µM.

As to `Cn1ccnc1CN1C[C@H]2CCN(c3ncccn3)C[C@H]2C1`, the IC50 was > 50 µM (inactive).

For `COc1ccc(-c2cc(-c3nnc4n3CCCCC4)n(-c3ccccc3)n2)cc1`, the half-inhibitory concentration (IC50) was 20.1 µM.

For `CCC(=O)OCc1cnc(C)c2oc(=O)c(-c3nc(-c4ccccc4)no3)cc12`, the IC50 was > 50 µM (inactive).

On to `CCc1ccc(NC(=O)Cc2nnc3cc(-c4nc(C)no4)ccn23)cc1`, for which the IC50 was 4.07 µM.

With `COc1cc(C(=O)NC(Cc2ccccc2)c2nc3ccccc3[nH]2)cc(OC)c1OC` (configuration not stated), the half-inhibitory concentration (IC50) was 3.77 µM.

In the case of `CN(Cc1ccccc1)S(=O)(=O)c1ccc(S(=O)(=O)N2CCN(C(=O)c3cccnc3)CC2)cc1`, the half-inhibitory concentration (IC50) was 18.8 µM.

Turning to `O=C(c1ccc2ncccc2c1)N1CCC2(C1)Nc1cccnc1NC2=NC1CCCC1` (configuration not stated), the IC50 was > 50 µM (inactive).

As for `COc1ccccc1-c1nc(-c2nnn(Cc3cccc(F)c3)c2C)no1`, the half-inhibitory concentration (IC50) is 10.4 µM.

Take `Cc1cc(-c2nnc(SCC(=O)Nc3ccc(Br)c(C)c3)n2N)n[nH]1`: the 50% inhibitory concentration (IC50) is 15.6 µM.

Take `Cc1ccnc(NC(=O)c2ccn(COc3ccc(Cl)cc3)n2)c1`: the IC50 is 21.9 µM.

As to `COc1ccc(NC(=O)c2nc3n(n2)-c2ccccc2S(=O)(=O)N3)cn1`, the IC50 is > 50 µM (inactive).

On to `COc1ccc(/C=C/c2ccnc3nc(-n4cccc4)nn23)cc1`, for which the IC50 was > 50 µM (inactive).

Turning to `Cc1nc2nc(SCc3nc4ccccc4n3C)[nH]c2cc1Br`, the IC50 is 2.9 µM.

For `CC(C)(C)C(=O)NC(c1ccccc1)c1nnc(N2CCOCC2)o1` (configuration not stated), the IC50 is > 50 µM (inactive).

Consider `Cc1cc(C)nc(-n2nc(C)c3c2NC(=O)CSC3c2ccccc2F)n1` (configuration not stated), for which the IC50 is 34.3 µM.

In the case of `COc1ccc(CCN2COc3c(cc(Cl)c4cccnc34)C2)cc1OC`, the concentration for half-maximal inhibition (IC50) is 14.1 µM.

Take `Cc1nc(-c2ccc(C(=O)NCc3ccc(F)cc3)cc2)cs1`: the concentration for half-maximal inhibition (IC50) is 36.7 µM.

Turning to `O=C(Nc1ccc(-c2nnc3n2CCCCC3)cc1)c1ccc2c(c1)OCO2`, the IC50 was 7.43 µM.

For `Cn1cc(NC(=O)Nc2cccc3ccccc23)c2ccccc21`, the IC50 was 16.5 µM.

Regarding `COc1ccc2[nH]cc(S(=O)(=O)c3ccc(C)c(F)c3)c(=O)c2c1`, the IC50 is 24.1 µM.

Turning to `COc1ccc(OC)c(CCNC(=O)CCC2=NS(=O)(=O)c3ccc(C(F)(F)F)cc3N2)c1`, the half-maximal inhibitory concentration (IC50) is 23.6 µM.

As for `Cc1noc(-c2cc(=O)n(CC(=O)NCc3ccccc3F)c3ccccc23)n1`, the IC50 was 9.89 µM.

As to `COc1ccc(/C=C/C(=O)Nc2ccc3c(c2)OCCO3)cc1Br`, the half-inhibitory concentration (IC50) was 1.34 µM.

With `Cc1ccc(N=Cc2sc(O)c3ccccc23)c(C)c1`, the IC50 was > 50 µM (inactive).

As for `CCc1ccc(-n2nc(C)c3c2NC(=O)CC3C(=O)c2ccc3c(c2)OCCO3)cc1` (configuration not stated), the half-inhibitory concentration (IC50) is 26.4 µM.

As for `Cn1c(=O)sc2cc(NC(=O)c3ccc(Br)cc3)ccc21`, the IC50 is 2.76 µM.

As for `Cc1ccc(C2c3cccn3CCN2C(=O)Nc2ccccc2)cc1` (configuration not stated), the IC50 was > 50 µM (inactive).

As to `Cc1noc(NS(=O)(=O)c2ccc(NC(=O)CSc3ccc4ccccc4c3)cc2)c1C`, the IC50 was > 50 µM (inactive).

Turning to `O=c1c2cnc(N3CCCCC3)nc2ccn1CCc1ccccc1`, the IC50 is 5.5 µM.

`Cc1nc(N2CCCC2)ncc1C(=O)Nc1ccc(F)c(F)c1`: the IC50 was 32.9 µM.

Take `CCOC(=O)c1ccc(NC(=O)COc2cccc3c2CCN(CC)C3=O)cc1`: the IC50 is 5.4 µM.

`Cc1ccc(NC(=O)/C=C/c2cccc(C(F)(F)F)c2)c(O)c1`: the half-maximal inhibitory concentration (IC50) was 16.2 µM.

For `COc1ccccc1S(=O)(=O)N1CC[C@@H]2CN(C)[C@@H]2C1`, the half-maximal inhibitory concentration (IC50) is 35.1 µM.

Turning to `COC(=O)C1C(c2ccc(OC)cc2)C2(C(=O)c3ccccc3C2=O)C2C=Cc3ccccc3N12` (configuration not stated), the IC50 was > 50 µM (inactive).

Turning to `COc1cc(Cl)ccc1Nc1ncc(C(=O)Nc2cc(OC)c(OC)c(OC)c2)c2ccccc12`, the concentration for half-maximal inhibition (IC50) was less than 0.05 µM.

Consider `O=C(Cc1c[nH]c2ccccc12)Nc1nc2ccccc2s1`, for which the IC50 is 21.2 µM.

On to `CCCN1CCN(C(=O)c2cc(NC(=O)C3CCC3)cc3nc(C)ccc23)CC1`, for which the IC50 is > 50 µM (inactive).

In the case of `Cc1ccc(-c2noc(-c3nnc(SCC(=O)NC4CCCC4)n3C)n2)cc1`, the IC50 entry is “inactive”.

Regarding `O=C(Nc1ccc(F)c(Cl)c1)c1ccc(N2CCCCS2(=O)=O)cc1Cl`, the IC50 was 30.5 µM.

As to `CCn1c(SCc2cccc(C)c2)nnc1-c1cnccn1`, the 50% inhibitory concentration (IC50) was 22 µM.
